pIC50: −log10 of the molar value. Read-outs that look alike come from different tables or passages of the source. Where only a bound is given, the exact number is not on record here.

A word on the solubility: it is how much of the substance goes into solution per volume.

In series [1] the test system is human CEM leukemic lymphocytes. The series is described as follows: Growth inhibition of human CEM leukemic lymphocyte suspension cultures, 48 h continuous drug exposure (ID50). The following applies: Homo sapiens, Lymphocyte. The format is cell-based. How it is done: (§1) Culture and bioassay conditions were as described in Cancer Chemotherapy Pharmacology 20:277 (1987) "Comparative Effects of Adriamycin and DNA-nonbinding Analogues on DNA, RNA, and Protein Synthesis in Vitro", Israel et al., except that cell counts were determined by hemocytometer rather than by automated cell counting.

The test system of series [2] is plasmid PC15 supercoiled DNA. As to the kind of experiment: DNA unwinding assay (interference with DNA topoisomerase I-mediated unwinding; drug-DNA intercalation). To be noted: for interference with topoisomerase I-mediated conversion of supercoiled DNA / intercalation: 4 concentrations, 125-fold range. The format is biochemical. The source says:
DNA unwinding assays were used to measure the ability of a test drug to interfere with DNA topoisomerase I-mediated unwinding of plasmid PC15 supercoiled DNA. DNA topoisomerase I controls the topology of double-stranded DNA and is itself not inhibited by DNA intercalating agents. Rather, intercalating agents cause distortion of the torsional angle between adjacent DNA strand components and thereby interfere with the ability of topoisomerase I to convert supercoiled DNA into relaxed forms. Accordingly, this assay is taken as the definitive test of drug-DNA intercalation.
Drugs were tested at 4 concentrations over a 125-fold concentration range. […] These compounds are 2-chloroethylurea derivatives of daunorubicin and adriamycin, respectively (i.e. not nitrosoureas, but chemical intermediates from which the nitrosoureas were derived).

A further series has as its system DNA topoisomerase II. The series is described as follows: Drug-stimulated topoisomerase II-mediated DNA cleavage assay (end-labeled PMC41 DNA). The format is biochemical. The following applies: 625-fold concentration range. The source says:
FIGS. 5A and 5B are a photographic reproduction of the results of drug-stimulated topoisomerase II-mediated DNA cleavage assays performed on various compounds, including compounds of the present invention.
DNA intercalation is a necessary but not a sufficient requirement for DNA topoisomerase II-mediated DNA cleavage. Accordingly, determination of drug-induced enzyme inhibition requires direct assay with isolated topoisomerase II. These assays involve determination of drug-enhanced topoisomerase II-mediated cleavage of PMC41 DNA appropriately end-labeled with [α-^32 P]dATP. As better seen in FIG. 5B, lane B, purified topoisomerase II, under the assay conditions, causes fragmentation of the DNA (background cleavage), as indicated by the radioautographic appearance of bands of cleaved DNA having differing mass values.

Series [3] in a line: Solubility in water or saline. The format is physicochemical. How it is done: Accordingly, the compounds are formulated for administration by dissolving the compound in a pharmaceutically acceptable non-toxic carrier which contains a surfactant. The present inventors employ a formulation of 10% Cremaphor EL (a polyhydroxylated castor oil derivative) available from BASF Chemicals, 10% ethanol and 80% aqueous media (sterile water or saline solution). That quantity of the compound desired for establishing an effective dose is dissolved in a 1:1 mixture of Cremaphor EL and ethanol. Thereafter, sufficient aqueous medium is added with stirring to develop a final formulation containing 80% aqueous medium. This formulation is administered parenterally.

The next series has as its system calf thymus DNA. The series is described as follows: Interstrand cross-link formation in isolated calf thymus DNA, ethidium bromide fluorescence assay. The format is biochemical. The following applies: 10 mM, 4 hours at 50° C. How it is done: To further assess the alkylation potential of AD 312, the ability of this agent to form interstrand cross-links in isolated calf thymus DNA was examined using an ethidium bromide fluorescence assay. […] In one set of experiments, DNA was exposed briefly to AD 312 (30 minutes at 50° C.) before being reisolated by precipitation with ethanol. […] Such continuing reaction reflects the presence in the DNA of long-lived precursors of crosslinks similar to what has been found for the classical antitumor chloroethylnitrosoureas. […] It appears, therefore, that AD 312 induces DNA interstrand crosslinks via an initial adduct at O^6 -guanine.

The test system of series [4] is murine L1210 leukemia cells. The series is described as follows: Clonogenic assay with cultured murine L1210 leukemia cells, 1 h drug exposure (LD90). The format is cell-based. To be noted: Mus musculus, L1210; 1 hr drug exposure; read-out: L1210 LD90 (dose killing 90% of clonogens). How it is done: as §1
+Dose killing 90% of clonogens, 1hr. drug exposure.

Where [5] appears, read: CEM, 48 hr continuous drug exposure (Table 2), read-out: ID50 (the source's name).

In the case of `COc1cccc2c1C(=O)c1c(O)c3c(c(O)c1C2=O)C[C@@](O)(C(C)=O)C[C@@H]3O[C@H]1C[C@H](NC(=O)Nc2ccccc2)[C@H](O)[C@H](C)O1` [AD 309], the pIC50 in series [1] (setting [5]) was < 6.00. Same read-out and setting: in the case of `COc1cccc2c1C(=O)c1c(O)c3c(c(O)c1C2=O)C[C@@](O)(C(=O)CO)C[C@@H]3O[C@H]1C[C@H](NC(=O)NC(C)C)[C@H](O)[C@H](C)O1` [AD 350] it was 6.14; in that of `CCCN(N=O)C(=O)N[C@H]1C[C@H](O[C@H]2C[C@](O)(C(C)=O)Cc3c(O)c4c(c(O)c32)C(=O)c2c(OC)cccc2C4=O)O[C@@H](C)[C@H]1O` [AD 313], < 6.00; in that of `COc1cccc2c1C(=O)c1c(O)c3c(c(O)c1C2=O)C[C@@](O)(C(=O)CO)C[C@@H]3O[C@H]1C[C@H](NC(=O)Nc2ccccc2)[C@H](O)[C@H](C)O1` [AD 352], 6.40. Same read-out and setting: in the case of `COc1cccc2c1C(=O)c1c(O)c3c(c(O)c1C2=O)C[C@@](O)(C(=O)CO)C[C@@H]3O[C@H]1C[C@H](NC(=O)Nc2ccc(F)cc2)[C@H](O)[C@H](C)O1` [AD 356] it was 5.94; in that of `CCCNC(=O)N[C@H]1C[C@H](O[C@H]2C[C@](O)(C(C)=O)Cc3c(O)c4c(c(O)c32)C(=O)c2c(OC)cccc2C4=O)O[C@@H](C)[C@H]1O` [AD 308], < 5.30. For the compound `COc1cccc2c1C(=O)c1c(O)c3c(c(O)c1C2=O)C[C@@](O)(C(=O)CO)C[C@@H]3O[C@H]1C[C@H](NC(=O)NCCCl)[C@@H](O)[C@H](C)O1` [AD 391, 2-chloroethylureidoepirubicin], the “interference with topoisomerase I-mediated conversion of supercoiled DNA / intercalation” value in series [2] is given as “strong intercalators”. Further, in the series on DNA topoisomerase II, the “enhancement of topoisomerase II-mediated DNA cleavage” value is “do not enhance topoisomerase II-mediated cleavage”. Moreover, the pIC50 in series [1] (setting [5]) is 7.10.

Regarding `CCN(N=O)C(=O)N[C@H]1C[C@H](O[C@H]2C[C@](O)(C(C)=O)Cc3c(O)c4c(c(O)c32)C(=O)c2c(OC)cccc2C4=O)O[C@@H](C)[C@H]1O` [AD 311], in series [1] (48 h, read-out: ID50), the pIC50 is 5.82. In the case of `COc1cccc2c1C(=O)c1c(O)c3c(c(O)c1C2=O)C[C@@](O)(C(=O)CO)C[C@@H]3O[C@H]1C[C@H](NC(=O)N(C)N=O)[C@H](O)[C@H](C)O1` [AD 343], the pIC50 in series [1] (48 h, read-out: ID50) is 6.32. The same measure, in the same setting: as for `CCN(N=O)C(=O)N[C@H]1C[C@H](O[C@H]2C[C@](O)(C(=O)CO)Cc3c(O)c4c(c(O)c32)C(=O)c2c(OC)cccc2C4=O)O[C@@H](C)[C@H]1O` [AD 345], the figure is 6.21.

On to `COc1cccc2c1C(=O)c1c(O)c3c(c(O)c1C2=O)C[C@@](O)(C(C)=O)C[C@@H]3O[C@H]1C[C@H](NC(=O)NC(C)C)[C@H](O)[C@H](C)O1` [AD 328], for which, in series [1] (setting [5]), the pIC50 was < 6.00. Consider `CCNC(=O)N[C@H]1C[C@H](O[C@H]2C[C@](O)(C(=O)CO)Cc3c(O)c4c(c(O)c32)C(=O)c2c(OC)cccc2C4=O)O[C@@H](C)[C@H]1O` [AD 344], for which the pIC50 in series [1] (48 h, read-out: ID50) was 6.24. With `CCOC(=O)NC(=S)N[C@H]1C[C@H](O[C@H]2C[C@](O)(C(=O)CO)Cc3c(O)c4c(c(O)c32)C(=O)c2c(OC)cccc2C4=O)O[C@@H](C)[C@H]1O` [AD 360], the pIC50 in series [1] (setting [5]) was 6.44. As for `CNC(=O)N[C@H]1C[C@H](O[C@H]2C[C@](O)(C(C)=O)Cc3c(O)c4c(c(O)c32)C(=O)c2c(OC)cccc2C4=O)O[C@@H](C)[C@H]1O` [AD 305], in series [1] (setting [5]), the pIC50 is 5.64. Turning to `COc1cccc2c1C(=O)c1c(O)c3c(c(O)c1C2=O)C[C@@](O)(C(=O)CO)C[C@@H]3O[C@H]1C[C@H](NC(=O)N(CCCl)N=O)[C@H](O)[C@H](C)O1` [AD 337], the “solubility” value was “essentially insoluble in water or saline solution” in series [3] (water or saline solution) and < 25 µg/mL in series [3] (water, of the order of, read-out: solubility in water). For `COc1cccc2c1C(=O)c1c(O)c3c(c(O)c1C2=O)C[C@@](O)(C(=O)CO)C[C@@H]3O[C@H]1C[C@@H]2NC(=O)O[C@@H]2[C@H](C)O1` [AD 363], the pIC50 in series [1] (setting [5]) was 6.15. Still for that read-out and setting: as for `COc1ccc(NC(=O)N[C@H]2C[C@H](O[C@H]3C[C@](O)(C(C)=O)Cc4c(O)c5c(c(O)c43)C(=O)c3c(OC)cccc3C5=O)O[C@@H](C)[C@H]2O)cc1` [AD 330], the figure is < 6.00. For the compound `CCOC(=O)NC(=S)N[C@H]1C[C@H](O[C@H]2C[C@](O)(C(C)=O)Cc3c(O)c4c(c(O)c32)C(=O)c2c(OC)cccc2C4=O)O[C@@H](C)[C@H]1O` [AD 336], the pIC50 in series [1] (setting [5]) is 6.22. Still for that read-out and setting: in the case of `COc1cccc2c1C(=O)c1c(O)c3c(c(O)c1C2=O)C[C@@](O)(C(C)=O)C[C@@H]3O[C@H]1C[C@H](NC(=O)Nc2cccc(C(F)(F)F)c2)[C@H](O)[C@H](C)O1` [AD 334] it was 6.08. `COc1cccc2c1C(=O)c1c(O)c3c(c(O)c1C2=O)C[C@@](O)(C(C)=O)C[C@@H]3O[C@H]1C[C@H](NC(=O)NCCCl)[C@H](O)[C@H](C)O1` [AD 307, 2-chloroethylureidodaunorubicin]: the “interference with topoisomerase I-mediated conversion of supercoiled DNA / intercalation” value in series [2] is recorded as “reasonably strong intercalators”. In addition, the pIC50 in series [1] (setting [5]) is 6.52. Besides, the “interstrand crosslink formation” value with calf thymus DNA is “appeared to produce no such effect”. With `COc1cccc2c1C(=O)c1c(O)c3c(c(O)c1C2=O)C[C@@](O)(C(C)=O)C[C@@H]3O[C@H]1C[C@H](NC(=O)N(C)N=O)[C@H](O)[C@H](C)O1` [AD 310], the pIC50 in series [1] (setting [5]) was 5.85. In the case of `COc1cccc2c1C(=O)c1c(O)c3c(c(O)c1C2=O)C[C@@](O)(C(=O)CO)C[C@@H]3O[C@H]1C[C@H](NC(=O)NCCCl)[C@H](O)[C@H](C)O1` [AD 346, 2-chloroethylureidoadriamycin], in series [2], the “interference with topoisomerase I-mediated conversion of supercoiled DNA / intercalation” value is “reasonably strong intercalators”. Also, the “enhancement of topoisomerase II-mediated DNA cleavage” value in the series with DNA topoisomerase II was “do not enhance topoisomerase II-mediated cleavage”. Moreover, in series [1] (setting [5]), the pIC50 is 7.05. With `CNC(=O)N[C@H]1C[C@H](O[C@H]2C[C@](O)(C(=O)CO)Cc3c(O)c4c(c(O)c32)C(=O)c2c(OC)cccc2C4=O)O[C@@H](C)[C@H]1O` [AD 342], the pIC50 in series [1] (setting [5]) was 5.70. As to `CCCNC(=O)N[C@H]1C[C@H](O[C@H]2C[C@](O)(C(=O)CO)Cc3c(O)c4c(c(O)c32)C(=O)c2c(OC)cccc2C4=O)O[C@@H](C)[C@H]1O` [AD 348], the pIC50 in series [1] (setting [5]) was 6.11. Same read-out and setting: as for `COc1cccc2c1C(=O)c1c(O)c3c(c(O)c1C2=O)C[C@@](O)(C(C)=O)C[C@@H]3O[C@H]1C[C@@H]2NC(=O)O[C@@H]2[C@H](C)O1` [AD 362], the figure is 6.06.

In the case of `COc1cccc2c1C(=O)c1c(O)c3c(c(O)c1C2=O)C[C@@](O)(C(C)=O)C[C@@H]3O[C@H]1C[C@H](NC(=O)Nc2ccc(F)cc2)[C@H](O)[C@H](C)O1` [AD 332], the pIC50 in series [1] (48 h, read-out: ID50) was < 6.00.

Consider `COc1cccc2c1C(=O)c1c(O)c3c(c(O)c1C2=O)C[C@@](O)(C(=O)CO)C[C@@H]3O[C@H]1C[C@H](N)[C@@H](O)[C@H](C)O1` [Epirubicin, epirubicin, reference compound], for which, in series [2] (0 = no intercalation, 9 = very strong intercalation), the “relative strength of drug-DNA intercalation (arbitrary scale)” value turned out to be 7. Also, the IC90 in series [4] came to 430 nM. In addition, in series [1] (suspension culture, 48 hr continuous drug exposure (Table 3), read-out: CEM, ID50 (50% growth-inhibitory concentration)), the pIC50 was 7.52. Take `CCNC(=O)N[C@H]1C[C@H](O[C@H]2C[C@](O)(C(C)=O)Cc3c(O)c4c(c(O)c32)C(=O)c2c(OC)cccc2C4=O)O[C@@H](C)[C@H]1O` [AD 306]: the pIC50 in series [1] (setting [5]) is < 6.00.

Regarding `CCCN(N=O)C(=O)N[C@H]1C[C@H](O[C@H]2C[C@](O)(C(=O)CO)Cc3c(O)c4c(c(O)c32)C(=O)c2c(OC)cccc2C4=O)O[C@@H](C)[C@H]1O` [AD 349], the pIC50 in series [1] (setting [5]) was 6.37. In the case of `COc1ccc(NC(=O)N[C@H]2C[C@H](O[C@H]3C[C@](O)(C(=O)CO)Cc4c(O)c5c(c(O)c43)C(=O)c3c(OC)cccc3C5=O)O[C@@H](C)[C@H]2O)cc1` [AD 354], the pIC50 in series [1] (setting [5]) is 6.15.

Values taken from patent US4973675A, “Hybrid nitrosoureidoanthracyclines having antitumor activity” (University of Tennessee Research Center, priority 1989, dated 1990).
